Test results published in PMC3140712 (2011).
Counter-ions that a name gives are not always drawn.

Target: P2Y1 receptor (Homo sapiens, UniProt P47900)
Assay: intracellular calcium mobilization
Assay type: cell-based

Sequence of P2Y1 receptor (P47900 whole entry): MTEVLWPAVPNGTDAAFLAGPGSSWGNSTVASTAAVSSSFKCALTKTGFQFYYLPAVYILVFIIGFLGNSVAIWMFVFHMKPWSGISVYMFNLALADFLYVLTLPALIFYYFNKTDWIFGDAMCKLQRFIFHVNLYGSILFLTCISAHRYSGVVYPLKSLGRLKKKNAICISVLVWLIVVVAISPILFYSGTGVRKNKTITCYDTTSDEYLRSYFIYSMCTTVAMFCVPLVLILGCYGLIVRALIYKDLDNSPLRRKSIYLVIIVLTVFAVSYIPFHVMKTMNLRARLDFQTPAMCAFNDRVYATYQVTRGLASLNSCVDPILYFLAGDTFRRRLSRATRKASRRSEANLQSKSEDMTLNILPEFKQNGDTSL

CSc1nc(N)c2ncn([C@H]3[C@H](O)[C@H](O)[C@]4(COP(=O)(O)OP(=O)(O)O)C[C@H]34)c2n1 [MRS2365, [[(1R,2R,3S,4R,5S)-4-[6-amino-2-(methylthio)-9H-purin-9-yl]-2,3-dihydroxybicyclo[3.1.0]hex-1-yl]methyl] diphosphoric acid mono ester trisodium salt]
EC50: 5.28 ± 1.96 nM
